Source: PubChem BioAssay AID330 (DTP/NCI, 2004)
Where “and” joins values, the source holds several entries; their conditions need not be identical. Equal values may be shown once. Inconclusive results and toxic doses are left out. Rule for the calls: active = survival T/C of 150% or more; inactive = T/C below 125% in these data.

Tested on: P388 leukemia ip, CD2F1 mice, survival T/C
Experiment: NCI In Vivo Anticancer Drug Screen. Data for tumor model P388 Leukemia (intraperitoneal) in CD2F1 (CDF1) mice
Conditions: endpoint: median survival time, higher = longer survival
How it was run: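 Mice carrying the transplanted tumor received test compound or vehicle. Survival was recorded in each group, and the value is the treated-group measurement divided by that of the vehicle-treated control group.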

[1] = dose: 50.0 mg/kg/injection, schedule: Q01DX005 (ip), vehicle: saline with Tween-80
[2] = dose: 100.0 mg/kg/injection, schedule: Q01DX005 (ip), vehicle: saline with Tween-80
[3] = dose: 200.0 mg/kg/injection, schedule: Q01DX005 (ip), vehicle: saline with Tween-80
[4] = dose: 50.0 mg/kg/injection, schedule: Q01DX009 (ip), vehicle: saline with Tween-80
[5] = dose: 100.0 mg/kg/injection, schedule: Q01DX009 (ip), vehicle: saline with Tween-80
[6] = dose: 200.0 mg/kg/injection, schedule: Q01DX009 (ip), vehicle: saline with Tween-80
[7] = dose: 12.5 mg/kg/injection, schedule: Q01DX009 (ip), vehicle: saline
[8] = dose: 25.0 mg/kg/injection, schedule: Q01DX009 (ip), vehicle: saline
[9] = dose: 50.0 mg/kg/injection, schedule: Q01DX009 (ip), vehicle: saline
[10] = dose: 100.0 mg/kg/injection, schedule: Q01DX009 (ip), vehicle: saline
[11] = dose: 60.0 mg/kg/injection, schedule: Q01DX005 (ip), vehicle: saline with Tween-80
[12] = dose: 120.0 mg/kg/injection, schedule: Q01DX005 (ip), vehicle: saline with Tween-80
[13] = dose: 240.0 mg/kg/injection, schedule: Q01DX005 (ip), vehicle: saline with Tween-80
[14] = dose: 6.25 mg/kg/injection, schedule: Q01DX009 (ip), vehicle: saline
[15] = dose: 200.0 mg/kg/injection, schedule: Q01DX009 (ip), vehicle: saline
[16] = dose: 1.56 mg/kg/injection, schedule: Q01DX009 (ip), vehicle: saline
[17] = dose: 3.12 mg/kg/injection, schedule: Q01DX009 (ip), vehicle: saline
[18] = dose: 6.25 mg/kg/injection, schedule: Q01DX009 (ip), vehicle: saline with Tween-80
[19] = dose: 12.5 mg/kg/injection, schedule: Q01DX009 (ip), vehicle: saline with Tween-80
[20] = dose: 25.0 mg/kg/injection, schedule: Q01DX009 (ip), vehicle: saline with Tween-80
[21] = dose: 50.0 mg/kg/injection, schedule: Q01DX005 (ip), vehicle: Klucel (hydroxypropylcellulose) (HPC)
[22] = dose: 100.0 mg/kg/injection, schedule: Q01DX005 (ip), vehicle: Klucel (hydroxypropylcellulose) (HPC)
[23] = dose: 200.0 mg/kg/injection, schedule: Q01DX005 (ip), vehicle: Klucel (hydroxypropylcellulose) (HPC)

Measured: T/C

Cn1c2ccc(Cl)cc2c2oc(-c3nn[nH]n3)cc(=O)c21
inactive: [1] 102 % of control | [2] 107 % of control | [3] 97 % of control

O=C(O)CCCCCCCCC#CC#CCO
inactive: [1] 101 % of control | [2] 99 % of control | [3] 95 % of control

COc1ccc(C(=O)CC2CCCC(CC(=O)c3ccc(OC)cc3)N2C)cc1 (stereo not given)
inactive: [4] 100 % of control | [5] 101 % of control

CN(C)CC(CN(C)C)C(=O)/C=C/c1ccccc1
inactive: dose: 1.56 mg/kg/injection, schedule: Q01DX005 (ip), vehicle: saline 99 % of control | dose: 3.12 mg/kg/injection, schedule: Q01DX005 (ip), vehicle: saline 107 % of control

OC1(c2cccnc2)C=CCC1 (stereo not given)
inactive: [4] 100 % of control | [5] 102 % of control | [6] 100 % of control

O=C1C=CC(=O)C(N(CCO)CCO)=C1
inactive: [7] 99 % of control | dose: 12.5 mg/kg/injection, schedule: Q01DX009 (ip), vehicle: suspension in saline 100 % of control | [8] 94 % of control | dose: 25.0 mg/kg/injection, schedule: Q01DX009 (ip), vehicle: suspension in saline 103 % of control | [9] 95 % of control | dose: 50.0 mg/kg/injection, schedule: Q01DX009 (ip), vehicle: suspension in saline 113 % of control | [10] 95 % of control | dose: 100.0 mg/kg/injection, schedule: Q01DX009 (ip), vehicle: suspension in saline 109 % of control and 111 % of control

CCC1(C(=O)c2ccccc2)C(C(=O)OC)=NC(=S)N=C1C(=O)OC
inactive: [11] 99 % of control | [12] 90 % of control | [13] 100 % of control

CCC(c1ccc(O)cc1)c1cc2c(cc1OCCO)OCO2 (stereo not given)
inactive: [1] 95 % of control | [2] 98 % of control | [3] 95 % of control

CCCCC1N=CNc2c1ccc1c2[nH]c2ccccc21 (stereo not given)
inactive: dose: 12.5 mg/kg/injection, schedule: Q04DX002 (ip), vehicle: saline with Tween-80 101 % of control | dose: 25.0 mg/kg/injection, schedule: Q04DX002 (ip), vehicle: saline with Tween-80 99 % of control | dose: 50.0 mg/kg/injection, schedule: Q04DX002 (ip), vehicle: saline with Tween-80 111 % of control

O=C1NC(=O)C2=C1CCCC2O (stereo not given)
inactive: [14] 102 % of control | [7] 101 % of control | [8] 110 % of control | [9] 102 % of control | [10] 107 % of control | [15] 118 % of control

[CH3][Sn]([CH3])([Cl])[CH2]CC[CH2][Sn]([CH3])([Cl])[Cl]
inactive: dose: 0.78 mg/kg/injection, schedule: Q01DX009 (ip), vehicle: saline 99 % of control | [16] 89 % of control | [17] 89 % of control

CCOC(=O)c1ccc(NC(=S)NC(=O)c2cccc(Br)c2)cc1
inactive: [11] 95 % of control | [12] 95 % of control | [13] 90 % of control

Nc1ccc(N)c(N)n1
inactive: [14] 95 % of control | [7] 104 % of control | [8] 100 % of control

COc1ccc(/C=N/NC(=O)c2ccc(Cl)cc2Cl)cc1OC
inactive: [11] 96 % of control | [12] 96 % of control | [13] 92 % of control

CC(CN=Cc1ccccc1O)N=Cc1ccccc1O.[Zn] (stereo not given)
inactive: [18] 103 % of control | [19] 111 % of control | [20] 93 % of control and 97 % of control | [4] 99 % of control

CC1(C)OC1(C(=O)C=[N+]=[N-])c1ccccc1 (stereo not given)
inactive: dose: 25.0 mg/kg/injection, schedule: Q01DX005 (ip), vehicle: saline with Tween-80 96 % of control | [1] 99 % of control | [2] 96 % of control | [3] 103 % of control

OCC1OC(n2ncc3ccccc32)C(O)C1O (stereo not given)
inactive: [18] 97 % of control | [19] 92 % of control | [20] 106 % of control | dose: 32.0 mg/kg/injection, schedule: Q01DX002 (ip), vehicle: saline with Tween-80 114 % of control and 90 % of control | [4] 106 % of control | dose: 64.0 mg/kg/injection, schedule: Q01DX002 (ip), vehicle: saline with Tween-80 106 % of control | [5] 100 % of control | dose: 128.0 mg/kg/injection, schedule: Q01DX002 (ip), vehicle: saline with Tween-80 112 % of control and 116 % of control

O=C1c2c(Cl)ccc([N+](=O)[O-])c2C(=O)c2c(Cl)ccc([N+](=O)[O-])c21
inactive: dose: 12.5 mg/kg/injection, schedule: Q01DX005 (ip), vehicle: Klucel (hydroxypropylcellulose) (HPC) 106 % of control | dose: 25.0 mg/kg/injection, schedule: Q01DX005 (ip), vehicle: Klucel (hydroxypropylcellulose) (HPC) 104 % of control | [21] 99 % of control and 104 % of control | [22] 94 % of control | [23] 94 % of control

O=C1c2ccccc2C(O)(C#Cc2ccccc2)c2c1oc1ccc3ccccc3c21 (stereo not given)
inactive: [4] 100 % of control | [5] 92 % of control | [6] 87 % of control

O=C(O)C(Cc1cn(Cc2ccccc2)cn1)NCc1ccccc1 (stereo not given)
inactive: [21] 92 % of control | [22] 104 % of control | [23] 95 % of control

O=C(c1ccc(C(F)(F)F)cc1)N1C2C3C=CC(C3)C2N1C(=O)c1ccc(C(F)(F)F)cc1 (stereo not given)
inactive: dose: 50.0 mg/kg/injection, schedule: Q04DX002 (ip), vehicle: Klucel (hydroxypropylcellulose) (HPC) 102 % of control | dose: 100.0 mg/kg/injection, schedule: Q04DX002 (ip), vehicle: Klucel (hydroxypropylcellulose) (HPC) 106 % of control | dose: 200.0 mg/kg/injection, schedule: Q04DX002 (ip), vehicle: Klucel (hydroxypropylcellulose) (HPC) 102 % of control

CC1C/C(=C2/NC3CCCCC3NC2=O)C(=O)O1 (stereo not given)
inactive: [18] 100 % of control | [19] 95 % of control | [20] 92 % of control

O=C1C(c2cnc3c(n2)CCC=C3)=C(O)c2ccccc21
inactive: [11] 99 % of control | [12] 100 % of control | [13] 100 % of control

NCC[Se][Se]CCN
inactive: [16] 98 % of control | [17] 98 % of control | [14] 104 % of control

COc1ccc(C(O)C/[N+]([O-])=C/c2ncc([N+](=O)[O-])n2C)cc1 (stereo not given)
inactive: [9] 97 % of control | [10] 100 % of control | [15] 106 % of control

Cc1cc([N+](=O)[O-])ccc1NC(=O)n1nnc2cc(Cl)ccc21
inactive: dose: 50.0 mg/kg/injection, schedule: Q01DX009 (ip), vehicle: Klucel (hydroxypropylcellulose) (HPC) 98 % of control | dose: 100.0 mg/kg/injection, schedule: Q01DX009 (ip), vehicle: Klucel (hydroxypropylcellulose) (HPC) 98 % of control | dose: 200.0 mg/kg/injection, schedule: Q01DX009 (ip), vehicle: Klucel (hydroxypropylcellulose) (HPC) 107 % of control

Brc1cnc2nc(Cc3ccccc3)[nH]c2c1
inactive: dose: 100.0 mg/kg/injection, schedule: Q01DX001 (ip), vehicle: saline with Tween-80 97 % of control | dose: 200.0 mg/kg/injection, schedule: Q01DX001 (ip), vehicle: saline with Tween-80 113 % of control | dose: 400.0 mg/kg/injection, schedule: Q01DX001 (ip), vehicle: saline with Tween-80 97 % of control

O=C1c2ccccc2C(=O)c2c(NCCN3CCCCC3)ccc(NCCN3CCCCC3)c21
inactive: dose: 4.0 mg/kg/injection, schedule: Q01DX009 (ip), vehicle: acid diluted with saline 102 % of control | dose: 8.0 mg/kg/injection, schedule: Q01DX009 (ip), vehicle: acid diluted with saline 100 % of control | dose: 12.5 mg/kg/injection, schedule: Q01DX009 (ip), vehicle: other 98 % of control | dose: 16.0 mg/kg/injection, schedule: Q01DX009 (ip), vehicle: acid diluted with saline 103 % of control | dose: 25.0 mg/kg/injection, schedule: Q01DX009 (ip), vehicle: other 104 % of control | dose: 32.0 mg/kg/injection, schedule: Q01DX009 (ip), vehicle: acid diluted with saline 101 % of control | dose: 50.0 mg/kg/injection, schedule: Q01DX009 (ip), vehicle: other 104 % of control | dose: 64.0 mg/kg/injection, schedule: Q01DX009 (ip), vehicle: acid diluted with saline 104 % of control | dose: 100.0 mg/kg/injection, schedule: Q01DX009 (ip), vehicle: other 121 % of control
